In one test the target is human orexin 1 receptor (Homo sapiens (Human), UniProt O43613). In words: Human orexin 1 receptor radioligand binding ([3H]-SB674042 competition). The note with it: CHO cells stably expressing human orexin 1 receptor; [3H]-SB674042 4 nM final; read-out: OR-1 Ki. The essentials:
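CHO cells stably expressing human OX1R incubated 60 min at room temperature with [3H]-SB674042 and compounds (7 concentrations, 0.1 nM–10 μM; DMSO ≤0.1%) in PBS. Nonspecific binding defined with 10 μM of a reference urea antagonist; bound radioactivity measured by filtration and scintillation counting.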

A further test concerns the target human orexin-2 receptor (Homo sapiens (Human), UniProt O43614). In words: Human orexin 2 receptor radioligand binding ([3H]-EMPA competition). Conditions: HEK293 cells stably expressing human orexin-2 receptor; [3H]-EMPA 5 nM final; read-out: OR-2 Ki. The essentials:
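Competition binding on HEK293 cells stably expressing human orexin-2 receptor, using 5 nM final [3H]-EMPA in PBS, compounds 0.1 nM to 10 μM (DMSO ≤0.1%). 60 min at room temperature, then filtration and scintillation counting; nonspecific binding defined with 10 μM of a reference antagonist.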

Chain of human orexin-2 receptor (O43614 whole entry): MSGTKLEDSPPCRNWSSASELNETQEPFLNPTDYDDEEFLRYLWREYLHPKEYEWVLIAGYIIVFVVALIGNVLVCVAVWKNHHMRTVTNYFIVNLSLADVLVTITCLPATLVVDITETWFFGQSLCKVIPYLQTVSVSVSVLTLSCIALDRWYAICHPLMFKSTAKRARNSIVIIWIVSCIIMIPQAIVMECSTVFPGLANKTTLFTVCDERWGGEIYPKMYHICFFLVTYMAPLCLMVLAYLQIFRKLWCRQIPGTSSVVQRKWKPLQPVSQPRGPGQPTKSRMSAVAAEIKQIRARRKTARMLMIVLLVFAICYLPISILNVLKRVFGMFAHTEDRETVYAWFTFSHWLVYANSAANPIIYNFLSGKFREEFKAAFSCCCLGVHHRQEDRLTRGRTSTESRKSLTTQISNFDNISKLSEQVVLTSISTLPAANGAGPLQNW
Chain of human orexin 1 receptor (O43613 whole entry): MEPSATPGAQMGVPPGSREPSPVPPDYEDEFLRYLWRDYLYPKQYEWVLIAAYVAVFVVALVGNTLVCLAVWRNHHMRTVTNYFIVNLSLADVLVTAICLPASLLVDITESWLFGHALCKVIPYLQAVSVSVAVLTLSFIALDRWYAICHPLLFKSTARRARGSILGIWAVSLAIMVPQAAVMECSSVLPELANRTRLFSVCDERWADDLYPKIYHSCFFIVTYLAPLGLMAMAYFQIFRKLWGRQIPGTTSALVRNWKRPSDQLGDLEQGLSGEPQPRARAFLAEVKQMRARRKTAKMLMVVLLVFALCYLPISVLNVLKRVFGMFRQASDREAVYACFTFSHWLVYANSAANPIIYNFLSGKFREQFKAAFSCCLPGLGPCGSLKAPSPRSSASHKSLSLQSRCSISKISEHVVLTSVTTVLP

On to `Cc1cc(C)nc(N2C[C@@H]3CCN(C(=O)c4cccc5c4-c4ccccc4C5)C[C@@H]32)n1` [Example 167, (1R,6S)-8-(4,6-Dimethylpyrimidin-2-yl)-3-(9H-fluoren-4-ylcarbonyl)-3,8-diazabicyclo[4.2.0]octane], for which the Ki at human orexin 1 receptor is 0.219 µM; at human orexin-2 receptor, 0.055 µM.
In the same order, the values of `Cc1cc(C)nc(N2C[C@@H]3CCN(C(=O)c4cccc5c4-c4ccccc4C5=O)C[C@@H]32)n1` [Example 168, 4-{[(1R,6S)-8-(4,6-Dimethylpyrimidin-2-yl)-3,8-diazabicyclo[4.2.0]oct-3-yl]carbonyl}-9H-fluoren-9-one] are 7.3 µM and 0.74 µM.
The matching figures for `Cc1cc(C)nc(N2C[C@@H]3CCN(C(=O)c4cc(F)ccc4-c4ccn[nH]4)C[C@@H]32)n1` [Example 171, (1R,6S)-8-(4,6-dimethylpyrimidin-2-yl)-3-{[5-fluoro-2-(1H-pyrazol-3-yl)phenyl]carbonyl}-3,8-diazabicyclo[4.2.0]octane]: 0.392 µM and 0.015 µM.
With `Cc1cc(C)nc(N2C[C@@H]3CCN(C(=O)c4nc(C)sc4-c4ccc(F)cc4)C[C@@H]32)n1` [Example 173, (1R,6S)-8-(4,6-Dimethylpyrimidin-2-yl)-3-{[5-(4-fluorophenyl)-2-methyl-1,3-thiazol-4-yl]carbonyl}-3,8-diazabicyclo[4.2.0]octane], the Ki is 2.15 µM at human orexin 1 receptor and 0.062 µM on human orexin-2 receptor.
Regarding `Cc1cc(C)nc(N2C[C@@H]3CCN(C(=O)c4cn[nH]c4-c4ccccc4)C[C@@H]32)n1` [Example 174, (1R,6S)-8-(4,6-Dimethylpyrimidin-2-yl)-3-[(5-phenyl-1H-pyrazol-4-yl)carbonyl]-3,8-diazabicyclo[4.2.0]octane], the Ki on human orexin 1 receptor turned out to be 10 µM; on human orexin-2 receptor, 6 µM.
Take `Cc1cc(C)nc(N2C[C@@H]3CCN(C(=O)c4c(-c5ccccc5)noc4C)C[C@@H]32)n1` [Example 175, (1R,6S)-8-(4,6-Dimethylpyrimidin-2-yl)-3-[(5-methyl-3-phenylisoxazol-4-yl)carbonyl]-3,8-diazabicyclo[4.2.0]octane]: the values for the inhibition constant (Ki) at human orexin 1 receptor and on human orexin-2 receptor were 10 µM and 0.488 µM, respectively.
In the same order, the values of `Cc1cc(C)nc(N2C[C@@H]3CCN(C(=O)c4cnoc4-c4ccccc4)C[C@@H]32)n1` [Example 176, (1R,6S)-8-(4,6-Dimethylpyrimidin-2-yl)-3-[(5-phenylisoxazol-4-yl)carbonyl]-3,8-diazabicyclo[4.2.0]octane] are 10 µM and 1.3 µM.
The matching figures for `Cc1cc(C)nc(N2C[C@@H]3CCN(C(=O)c4ncoc4-c4ccccc4F)C[C@@H]32)n1` [Example 177, (1R,6S)-8-(4,6-Dimethylpyrimidin-2-yl)-3-{[5-(2-fluorophenyl)-1,3-oxazol-4-yl]carbonyl}-3,8-diazabicyclo[4.2.0]octane]: 2.4 µM and 0.34 µM.
On to `Cc1cc(C)nc(N2C[C@@H]3CCN(C(=O)c4ncoc4-c4cccc(Cl)c4)C[C@@H]32)n1` [Example 178, (1R,6S)-3-{[5-(3-Chlorophenyl)-1,3-oxazol-4-yl]carbonyl}-8-(4,6-dimethylpyrimidin-2-yl)-3,8-diazabicyclo[4.2.0]octane], for which the inhibition constant Ki came to 7 µM at human orexin 1 receptor and 0.126 µM on human orexin-2 receptor.
For `Cc1cc(C)nc(N2C[C@@H]3CCN(C(=O)c4c(C)noc4-c4cc(C)on4)C[C@@H]32)n1` [Example 179, 4′-{[(1R,6S)-8-(4,6-Dimethylpyrimidin-2-yl)-3,8-diazabicyclo[4.2.0]oct-3-yl]carbonyl}-3′,5-dimethyl-3,5′-biisoxazole], the inhibitory constant (Ki) is 10 µM on human orexin 1 receptor and 1.1 µM on human orexin-2 receptor.
With `Cc1cc(C)nc(N2C[C@@H]3CCN(C(=O)c4c(C)noc4-c4snnc4C)C[C@@H]32)n1` [Example 180, (1R,6S)-8-(4,6-Dimethylpyrimidin-2-yl)-3-{[3-methyl-5-(4-methyl-1,2,3-thiadiazol-5-yl)isoxazol-4-yl]carbonyl}-3,8-diazabicyclo[4.2.0]octane], the values for the Ki on human orexin 1 receptor and on human orexin-2 receptor were 10 µM and 6.5 µM, respectively.
Turning to `Cc1cc(C)nc(N2C[C@@H]3CCN(C(=O)c4ncccc4Br)C[C@@H]32)n1` [Example 181, (1R,6S)-3-[(3-Bromopyridin-2-yl)carbonyl]-8-(4,6-dimethylpyrimidin-2-yl)-3,8-diazabicyclo[4.2.0]octane], the Ki came out at 10 µM at human orexin 1 receptor and 1.3 µM at human orexin-2 receptor.
In the same order, the values of `Cc1cc(C)nc(N2C[C@@H]3CCN(C(=O)c4ncccc4-n4ccnn4)C[C@@H]32)n1` [Example 182, (1R,6S)-8-(4,6-Dimethylpyrimidin-2-yl)-3-{[3-(1H-1,2,3-triazol-1-yl)pyridin-2-yl]carbonyl}-3,8-diazabicyclo[4.2.0]octane] are 10 µM and 1.5 µM.
The matching figures for `Cc1cc(C)nc(N2C[C@@H]3CCN(C(=O)c4ncccc4-n4nccn4)C[C@@H]32)n1` [Example 183, (1R,6S)-8-(4,6-Dimethylpyrimidin-2-yl)-3-{[3-(2H-1,2,3-triazol-2-yl)pyridin-2-yl]carbonyl}-3,8-diazabicyclo[4.2.0]octane]: 10 µM and 0.2 µM.
`Cc1cc(C)nc(N2C[C@@H]3CCN(C(=O)c4cccc(F)c4-c4cc[nH]n4)C[C@@H]32)n1` [Example 184, (1R,6S)-8-(4,6-Dimethylpyrimidin-2-yl)-3-{[3-fluoro-2-(1H-pyrazol-3-yl)phenyl]carbonyl}-3,8-diazabicyclo[4.2.0]octane]: the inhibition constant Ki at human orexin 1 receptor was determined as 0.156 µM; at human orexin-2 receptor, 0.009 µM.
The matching figures for `Cc1cc(C)nc(N2C[C@@H]3CCN(C(=O)c4cccc(F)c4-c4ncccn4)C[C@@H]32)n1` [Example 185, (1R,6S)-8-(4,6-Dimethylpyrimidin-2-yl)-3-[(3-fluoro-2-pyrimidin-2-ylphenyl)carbonyl]-3,8-diazabicyclo[4.2.0]octane]: 0.6 µM and 0.056 µM.
As to `Cc1cc(N2C[C@@H]3CCN(C(=O)c4cc(F)ccc4-n4nccn4)C[C@@H]32)nc(N)n1` [Example 186, 4-[(1R,6S)-3-{[5-Fluoro-2-(2H-1,2,3-triazol-2-yl)phenyl]carbonyl}-3,8-diazabicyclo[4.2.0]oct-8-yl]-6-methylpyrimidin-2-amine], the Ki was 10 µM on human orexin 1 receptor and 0.68 µM at human orexin-2 receptor.
The matching figures for `CNc1nc(C)cc(N2C[C@@H]3CCN(C(=O)c4cc(F)ccc4-n4nccn4)C[C@@H]32)n1` [Example 187, 4-[(1R,6S)-3-{[5-Fluoro-2-(2H-1,2,3-triazol-2-yl)phenyl]carbonyl}-3,8-diazabicyclo[4.2.0]oct-8-yl]-N,6-dimethylpyrimidin-2-amine]: 10 µM and 0.31 µM.
In the same order, the values of `Cc1cc(C)nc(N2C[C@@H]3CCN(C(=O)c4cc(F)ccc4-c4ccn(C)n4)C[C@@H]32)n1` [Example 188, (1R,6S)-8-(4,6-Dimethylpyrimidin-2-yl)-3-{[5-fluoro-2-(1-methyl-1H-pyrazol-3-yl)phenyl]carbonyl}-3,8-diazabicyclo[4.2.0]octane] are 1.3 µM and 0.035 µM.
The matching figures for `CN(C)c1cc(N2C[C@@H]3CCN(C(=O)c4cc(F)ccc4-n4nccn4)C[C@@H]32)ncn1` [Example 189, 6-[(1R,6S)-3-{[5-Fluoro-2-(2H-1,2,3-triazol-2-yl)phenyl]carbonyl}-3,8-diazabicyclo[4.2.0]oct-8-yl]-N,N-dimethylpyrimidin-4-amine]: 4.1 µM and 0.11 µM.
Turning to `CNc1cc(N2C[C@@H]3CCN(C(=O)c4cc(F)ccc4-n4nccn4)C[C@@H]32)ncn1` [Example 190, 6-[(1R,6S)-3-{[5-Fluoro-2-(2H-1,2,3-triazol-2-yl)phenyl]carbonyl}-3,8-diazabicyclo[4.2.0]oct-8-yl]-N-methylpyrimidin-4-amine], the Ki on human orexin 1 receptor came to 10 µM; at human orexin-2 receptor, 1.1 µM.
In the same order, the values of `Cc1nc(N)cc(N2C[C@@H]3CCN(C(=O)c4cc(F)ccc4-n4nccn4)C[C@@H]32)n1` [Example 191, 6-[(1R,6S)-3-{[5-Fluoro-2-(2H-1,2,3-triazol-2-yl)phenyl]carbonyl}-3,8-diazabicyclo[4.2.0]oct-8-yl]-2-methylpyrimidin-4-amine] are 10 µM and 0.23 µM.
The matching figures for `Nc1cc(N2C[C@@H]3CCN(C(=O)c4cc(F)ccc4-n4nccn4)C[C@@H]32)nc(N)n1` [Example 192, 6-[(1R,6S)-3-{[5-Fluoro-2-(2H-1,2,3-triazol-2-yl)phenyl]carbonyl}-3,8-diazabicyclo[4.2.0]oct-8-yl]pyrimidine-2,4-diamine]: 10 µM and 1.4 µM.
The matching figures for `O=C(c1cc(F)ccc1-n1nccn1)N1CC[C@H]2CN(c3cc(NC4CC4)ncn3)[C@H]2C1` [Example 194, N-Cyclopropyl-6-[(1R,6S)-3-{[5-fluoro-2-(2H-1,2,3-triazol-2-yl)phenyl]carbonyl}-3,8-diazabicyclo[4.2.0]oct-8-yl]pyrimidin-4-amine]: 10 µM and 0.65 µM.
On to `Cc1ccc(C(F)(F)F)c(C(=O)N2CC[C@H]3CN(c4ccnc(-c5ccccc5)n4)[C@H]3C2)c1` [Example 195, (5-Methyl-2-(trifluoromethyl)phenyl)((1R,6S)-8-(2-phenylpyrimidin-4-yl)-3,8-diazabicyclo[4.2.0]octan-3-yl)methanone], for which the figures for the inhibitory constant (Ki) at human orexin 1 receptor and on human orexin-2 receptor were 0.016 µM and 0.028 µM, respectively.
